Assay results published in ChEMBL document CHEMBL1821670, “Synthesis and in vitro biological evaluation of carbonyl group-containing analogues for σ1 receptors” (J Med Chem, 2011).

Tests used:
[1] = Displacement of [3H]-DTG from sigma 2 receptor in rat liver membrane homogenates after 2 hrs by liquid scintillation counting; assay type: cell membranes
[2] = Selectivity ratio of Ki for sigma 1 receptor in guinea pig brain membrane homogenates to Ki for sigma 2 receptor in rat liver membrane homogenates; assay type: cell membranes
[3] = Selectivity ratio of Ki for sigma 1 receptor in guinea pig brain membrane homogenates to Ki for human VAChT; assay type: cell membranes
[4] = molecular target: Sigma non-opioid intracellular receptor 1 (Cavia porcellus, UniProt Q60492); experiment: Displacement of (+)-[3H]pentazocine from sigma 1 receptor in guinea pig brain membrane homogenates after 90 mins by liquid scintillation counting; assay type: cell membranes
Sigma non-opioid intracellular receptor 1, sequence (Q60492 whole entry): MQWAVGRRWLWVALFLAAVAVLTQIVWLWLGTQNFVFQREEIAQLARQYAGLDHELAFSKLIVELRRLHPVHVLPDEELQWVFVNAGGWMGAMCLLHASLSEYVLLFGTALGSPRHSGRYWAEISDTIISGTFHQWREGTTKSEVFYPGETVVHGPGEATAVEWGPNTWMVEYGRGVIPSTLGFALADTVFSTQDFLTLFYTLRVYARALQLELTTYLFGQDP

[5] = molecular target: T1, Vesicular acetylcholine transporter (Homo sapiens, UniProt Q16572); experiment: Displacement of (-)-[3H]vesamicol from human VAChT expressed in rat PC12 A123.7 cells after 20 hrs; assay type: cell-based, PC-12
T1 sequence (Q16572 whole entry): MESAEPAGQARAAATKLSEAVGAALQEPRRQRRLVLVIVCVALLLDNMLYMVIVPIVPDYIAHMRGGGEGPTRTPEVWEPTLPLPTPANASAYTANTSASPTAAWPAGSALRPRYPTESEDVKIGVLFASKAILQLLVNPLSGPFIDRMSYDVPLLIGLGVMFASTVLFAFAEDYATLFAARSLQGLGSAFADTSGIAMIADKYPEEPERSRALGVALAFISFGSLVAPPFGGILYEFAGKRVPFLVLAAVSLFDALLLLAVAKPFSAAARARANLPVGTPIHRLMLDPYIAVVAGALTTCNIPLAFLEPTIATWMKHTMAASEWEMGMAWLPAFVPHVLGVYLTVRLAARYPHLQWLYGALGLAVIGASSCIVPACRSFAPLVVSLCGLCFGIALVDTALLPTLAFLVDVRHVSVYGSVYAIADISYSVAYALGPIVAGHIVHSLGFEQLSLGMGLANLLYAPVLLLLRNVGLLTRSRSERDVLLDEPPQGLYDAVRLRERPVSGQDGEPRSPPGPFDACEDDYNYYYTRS

O=C(c1ccc(F)cc1)C1CCN([C@H]2CCN(C(=O)c3ccc(F)cc3)C[C@@H]2O)CC1 (relative stereo)
Ki [1]: 8640 nM | Ratio Ki [2]: 2.7 | Ratio Ki [3]: 1.1

O[C@@H]1CCCC[C@H]1N1CCC(c2ccccc2)CC1 [VESAMICOL]
Ki [4]: 73.8 nM | Ki [1]: 346 nM

COc1ccc(C(=O)C2CCN([C@H]3CN(Cc4cccnc4)CC[C@@H]3O)CC2)cc1 (relative stereo)
Ki [1]: 17100 nM

O[C@@H]1CCN(Cc2ccc(F)cc2)C[C@H]1N1CCC(c2ccccc2)CC1
Ki [1]: 35.9 nM

O[C@@H]1CCN(Cc2cccc(I)c2)C[C@H]1N1CCC(c2ccccc2)CC1
Ki [4]: 92 nM | Ki [1]: 190 nM

COc1ccc(C(=O)C2CCN([C@H]3CN(Cc4ccccc4)CC[C@@H]3O)CC2)cc1 (relative stereo)
Ki [1]: 8540 nM | Ratio Ki [2]: 41 | Ratio Ki [3]: 0.17

O=C(c1ccc(F)cc1)C1CCN([C@H]2CN(Cc3cccnc3)CC[C@@H]2O)CC1 (relative stereo)
Ki [1]: 13000 nM | Ratio Ki [2]: 11 | Ratio Ki [3]: 0.2

COc1ccc(CCN2CCN(CCCc3ccccc3)CC2)cc1OC
Ki [1]: 242 nM

Cc1ccc(C2CCN([C@@H]3CCCC[C@H]3O)CC2)cc1
Ki [4]: 8.1 nM | Ki [1]: 42.4 nM | Ki [5]: 22.9 nM
